# Laboratory results published in ChEMBL document CHEMBL5518180, “Design, synthesis, and biological evaluation of harmine derivatives as topoisomerase I inhibitors for cancer treatment” (Eur J Med Chem, 2024).
# Calls of active or inactive are those of the source. The rule behind the calls is not given here.
# What was measured:
# [1] = Toxicity in BALB/c mouse transplanted with […] cells assessed as change in serum alanine aminotransferase level at 5 to 20 mg/kg, ip administered for 14 days by biochemical analysis; type: organism-based; conditions: in vivo, 336 h, dose 5-20 mg/kg, time 14 day
# HT-29 = test: Antiproliferative activity against human HT-29 cells assessed as inhibition of cell growth incubated for 48 hrs by MTT assay; type: functional, cell-based; conditions: HT-29, 48 h
# [2] = biological target: T1, DNA topoisomerase 1 (Homo sapiens) (UniProt P11387); test: Inhibition of Topoisomerase I (unknown origin) assessed as inhibition of relaxation of supercoiled DNA incubated for 90 mins in presence of pBR322 by electrophoretic analysis; conditions: dose 25-100 µM
# T1 sequence (whole entry): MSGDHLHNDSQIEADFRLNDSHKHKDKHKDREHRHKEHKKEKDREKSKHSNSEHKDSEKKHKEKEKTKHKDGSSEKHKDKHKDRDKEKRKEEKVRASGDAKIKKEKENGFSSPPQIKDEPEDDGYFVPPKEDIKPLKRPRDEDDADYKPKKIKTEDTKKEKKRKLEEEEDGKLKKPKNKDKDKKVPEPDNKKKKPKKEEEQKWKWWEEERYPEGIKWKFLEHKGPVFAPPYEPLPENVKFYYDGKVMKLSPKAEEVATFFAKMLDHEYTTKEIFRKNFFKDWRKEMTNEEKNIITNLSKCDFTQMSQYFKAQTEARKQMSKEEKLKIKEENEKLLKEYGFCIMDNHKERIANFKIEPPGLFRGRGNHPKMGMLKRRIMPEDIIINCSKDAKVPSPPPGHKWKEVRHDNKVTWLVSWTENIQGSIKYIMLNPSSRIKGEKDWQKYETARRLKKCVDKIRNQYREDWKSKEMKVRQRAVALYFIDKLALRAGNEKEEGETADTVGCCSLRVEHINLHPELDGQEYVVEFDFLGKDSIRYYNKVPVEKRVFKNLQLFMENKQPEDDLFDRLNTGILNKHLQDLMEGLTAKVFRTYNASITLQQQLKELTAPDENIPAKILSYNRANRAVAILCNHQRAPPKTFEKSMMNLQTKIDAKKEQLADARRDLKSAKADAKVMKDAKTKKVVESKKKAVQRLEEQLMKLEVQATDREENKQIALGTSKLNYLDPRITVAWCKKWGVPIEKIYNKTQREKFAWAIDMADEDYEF
# MCF7 [3] = test: Induction of apoptosis in human MCF7 cells assessed as decrease in Bcl-2 protein level incubated for 24 hrs by Western blotting analysis; type: functional, cell-based; conditions: dose 0.1-2 µM
# MDA-MB-231 = test: Antiproliferative activity against human MDA-MB-231 cells assessed as inhibition of cell growth incubated for 48 hrs by MTT assay; type: functional, cell-based; conditions: MDA-MB-231, 48 h
# MCF7 [4] = test: Antimigratory activity against human MCF7 cells assessed as wound healing rate at 0.125 uM incubated for 24 hrs by inverted fluorescence microscopic analysis (reference value: 42.5 %); type: functional
# [5] = Toxicity in BALB/c mouse transplanted with […] cells assessed as liver damage at 5 to 20 mg/kg, ip administered for 14 days by hematoxylin and eosin staining based analysis; type: organism-based; conditions: in vivo, 336 h, dose 5-20 mg/kg, time 14 day
# [6] = Toxicity in BALB/c mouse transplanted with […] cells assessed as change in lactate dehydrogenase level at 5 to 20 mg/kg, ip administered for 14 days by biochemical analysis; type: organism-based; conditions: in vivo, 336 h, dose 5-20 mg/kg, time 14 day
# MCF7 [7] = test: Induction of apoptosis in human MCF7 cells assessed as late apoptotic cells at 0.5 uM incubated for 24 hrs by Annexin V-FITC/Propidium Iodide staining based flow cytometry analysis (reference value: 5.58 %); type: functional
# MCF7 [8] = test: Inhibition of colony formation in human MCF7 cells at 0.075 uM incubated for 2 weeks by crystal violet staining based analysis; type: functional, cell-based
# MCF7 [9] = test: Induction of DNA double-strand breaks in human MCF7 cells assessed as increase in gamma-H2AX incubated for 48 hrs by DAPI staining based confocal laser scanning microscopy; type: functional, cell-based; conditions: dose 0.25-1 µM
# MCF7 [10] = test: Induction of DNA damage in human MCF7 cells at 1 uM pre-incubated for 24 hrs by Comet assay; type: functional, cell-based
# MCF7 [11] = test: Inhibition of colony formation in human MCF7 cells incubated for 2 weeks by crystal violet staining based analysis; type: functional, cell-based; conditions: dose 0.075-1.2 µM
# MCF7 [12] = test: Induction of DNA damage in human MCF7 cells at 5 to 10 uM pre-incubated for 24 hrs by Comet assay; type: functional, cell-based; conditions: dose 5-10 µM
# MCF7 [13] = test: Induction of apoptosis in human MCF7 cells assessed as increase in phosphorylated Bim protein expression incubated for 24 hrs by Western blotting analysis; type: functional, cell-based; conditions: dose 0.1-2 µM
# MCF7 [14] = test: Induction of apoptosis in human MCF7 cells assessed as late apoptotic cells at 0.1 uM incubated for 24 hrs by Annexin V-FITC/Propidium Iodide staining based flow cytometry analysis (reference value: 5.58 %); type: functional
# MCF7 [15] = test: Induction of apoptosis in human MCF7 cells assessed as increase in Bax protein expression incubated for 24 hrs by Western blotting analysis; type: functional, cell-based; conditions: dose 0.1-2 µM
# [16] = Toxicity in BALB/c mouse transplanted with […] cells assessed as change in body weight at 5 to 20 mg/kg, ip administered for 14 days; type: organism-based; conditions: in vivo, 336 h, dose 5-20 mg/kg, time 14 day
# MCF7 [17] = test: Antimigratory activity against human MCF7 cells assessed as decrease in MMP-2 expression incubated for 24 hrs by Western blotting analysis; type: functional, cell-based; conditions: dose 125-500 nM
# MCF7 [18] = test: Induction of DNA double-strand breaks in human MCF7 cells assessed as increase in gamma-H2AX protein expression incubated for 48 hrs by Western blotting analysis; type: functional, cell-based; conditions: dose 0.25-1 µM
# MCF7 [19] = test: Induction of apoptosis in human MCF7 cells assessed as viable cells at 0.5 uM incubated for 24 hrs by Annexin V-FITC/Propidium Iodide staining based flow cytometry analysis (reference value: 91.8 %); type: functional; conditions: read-out: Activity
# MCF7 [20] = test: Induction of apoptosis in human MCF7 cells assessed as viable cells at 0.1 uM incubated for 24 hrs by Annexin V-FITC/Propidium Iodide staining based flow cytometry analysis (reference value: 91.8 %); type: functional; conditions: read-out: Activity
# MCF7 [21] = test: Antimigratory activity against human MCF7 cells assessed as inhibition of recovery of cells from scratch wounds incubated for 24 hrs by inverted fluorescence microscopic analysis; type: functional, cell-based; conditions: dose 0.125-0.5 µM
# [22] = Toxicity in BALB/c mouse transplanted with […] cells assessed as heart damage at 5 to 20 mg/kg, ip administered for 14 days by hematoxylin and eosin staining based analysis; type: organism-based; conditions: in vivo, 336 h, dose 5-20 mg/kg, time 14 day
# PC-3 = test: Antiproliferative activity against human PC-3 cells assessed as inhibition of cell growth incubated for 48 hrs by MTT assay; type: functional, cell-based; conditions: PC-3, 48 h
# [23] = Toxicity in BALB/c mouse transplanted with […] cells assessed as spleen damage at 5 to 20 mg/kg, ip administered for 14 days by hematoxylin and eosin staining based analysis; type: organism-based; conditions: in vivo, 336 h, dose 5-20 mg/kg, time 14 day
# MCF7 [24] = test: Induction of apoptosis in human MCF7 cells assessed as necrotic cells at 2 uM incubated for 24 hrs by Annexin V-FITC/Propidium Iodide staining based flow cytometry analysis (reference value: 0.082 %); type: functional
# MCF7 [25] = test: Antiproliferative activity against human MCF7 cells assessed as inhibition of cell growth incubated for 48 hrs by MTT assay; type: functional, cell-based; conditions: MCF7, 48 h
smiles,measurement,setting,value
O=C(/C=C/c1ccc(Cl)c([N+](=O)[O-])c1)c1nccc2c1[nH]c1ccccc12,Activity,[1],Non-Toxic
same,IC50,HT-29,570 nM
same,inhibition,[2],Dose-Dependent Effect
same,Activity,MCF7 [3],Dose-Dependent Effect
same,IC50,MDA-MB-231,980 nM
same,Activity,MCF7 [4],15.3%
same,Activity,[5],Non-Toxic
same,Activity,[6],Non-Toxic
same,Activity,MCF7 [7],8.65%
same,inhibition,MCF7 [8],Active
same,Activity,MCF7 [9],Dose-Dependent Effect
same,Activity,MCF7 [10],inactive
same,inhibition,MCF7 [11],Dose-Dependent Effect
same,Activity,MCF7 [12],Active
same,Activity,MCF7 [13],Dose-Dependent Effect
same,Activity,MCF7 [14],7.06%
same,Activity,MCF7 [15],Dose-Dependent Effect
same,Activity,[16],Non-Toxic
same,Activity,MCF7 [17],Dose-Dependent Effect
same,Activity,MCF7 [18],Dose-Dependent Effect
same,viability at 0.5 µM,MCF7 [19],71%
same,viability at 0.1 µM,MCF7 [20],85.3%
same,Activity,MCF7 [21],Dose-Dependent Effect
same,Activity,[22],Non-Toxic
same,IC50,PC-3,1170 nM
same,Activity,[23],Non-Toxic
same,Activity,MCF7 [24],0.93%
same,IC50,MCF7 [25],340 nM
